This is an account of results in US4031235A, “Insecticidal substituted acetate compounds” (Sumitomo Chemical Company, Limited, priority 1972, dated 1977).

Data set [1] deals with Larvae of Mosquito (Culex pipiens). The data set can be described thus: Insecticidal activity on larvae of mosquito (Experimental Example 2). To be noted: 24 h, read-out: LC50 (50% lethal concentration). The format is in vivo. Here is the method:
(§1) An emulsifiable concentrate was prepared by blending each of the compounds (1) to (300) of the present invention, xylol and Sorpol SM-200 (trade name; manufactured by Toho Chemical Co., Ltd.) in a proportion of 25%, 50% and 25% (by weight), respectively. 20 to 25 day-old rice plants after seeding were grown in pots and sprayed with each 300-fold dilute solution of the emulsifiable concentrates thus prepared and a 300-fold dilute solution of carbaryl 30% wettable powder diluted with water as a control commercial agent in an amount of 10 ml/pot in each case and then the pots were covered by a cylindrical metal net. 15 small brown planthoppers (Delphacodes striatella Fallen) per group were released in each of the pots treated with carbaryl wettable powder, and compound (1) to (21) and (102) to (110), while 15 green rice leafhopper (Nephotettix bipuntatus cincticeps Uhler) per group were released in each of the pots treated with the carbaryl wettable powder and compounds (22) to (101) and (111) to (300).
Of the emulsifiable concentrates prepared in Experimental Example 1, each of those prepared from the compounds of Table 1 below was diluted with water to each of test concentrations and a 200 ml portion thereof was added to a 300 ml volume beaker. 30 larvae of mosquito per group were released in each of the beaker and allowed to stand for 1 day. Survival was observed and a LC50 (50% lethal concentration) was determined by calculating a percent killing in each case. As a control, lindane emulsifiable concentrate was used.

Data set [2] relates to adult mosquitoes (Culex pipiens). Description: Knock-down of adult mosquitoes by 0.2% oil preparation (Experimental Example 4). It is filed as in vivo. Conditions: 0.2% oil preparation, 0.7 ml, 1.5 Kg/cm^2, (70 Cm)^3 glass box, read-out: mosquitoes knocked down. As for the experimental part: (§2) 0.2% oil preparation was prepared from each of the compounds (1), (2), (8), (14), (22), (25), (26), (27), (51), (62), (73), (82), (86), (88), to (90), (92), (94), (96), (111), (119), (121), (165), (175), (180), (184), (185), (195), (200), (201), and (208) and allethrin as a control using deodorized kerosene.

Data set [3] relates to oriental house flies. Description: Activity on knock-down against oriental house flies (Experimental Example 5). To be noted: 0.2% oil preparation, 0.7 ml, 1.5 Kg/cm^2, (70 cm)^3 glass box. The format is in vivo. Here is the method:
as §2
20 oriental house flies per group were released in a (70 cm)^3 volume glass box and sprayed with each of the oil preparations prepared in Experimental Example 4 from the compounds of Table 3 below and allethrin in an amount of 0.7 ml under a pressure of 1.5 Kg/cm^2.

Data set [4] has as its system oriental house flies. Description: Potentiation of insecticidal activity by addition of piperonyl butoxide, topical application (Experimental Example 6). The format is in vivo. To be noted: piperonyl butoxide 5 times active ingredient; acetone solution on thoracic dorsal plate. Here is the method: To each of the compounds (22), (51), (62), (63), (82), (86), (125), (150), (160), (176), (177), (178), (184), (185), (191), (195), (200), (201), (204), (208), (210), (212) and (226) was added piperonyl butoxide in an amount of 5 times that of the active ingredient, respectively to prepare an acetone solution having a given concentration. Each of the thus prepared acetone solutions was applied onto a thoracic dosal plate of oriental house flies using a microshringe to observe a synergestic effect on insecticidal activity by piperonyl butoxide.

The nature of data set [5]: Oral toxicity to mice. To be noted: mouse, in vivo.
Data set [6] concerns small brown planthoppers (Delphacodes striatella Fallen). Description: Killing effect on small brown planthoppers on sprayed rice plants (Experimental Example 1). The format is in vivo. Conditions: 300-fold dilute solution, 10 ml/pot; one day after treatment; 1440 min. As for the experimental part: as §1
The subject of data set [7] is green rice leafhopper (Nephotettix bipuntatus cincticeps Uhler). The data set can be described thus: Killing effect on green rice leafhopper on sprayed rice plants (Experimental Example 1). The format is in vivo. To be noted: 300-fold dilute solution, 10 ml/pot; one day after treatment; 1440 min. As for the experimental part: as §1

By LD50 is commonly meant the dose at which mortality reaches 50%. Higher therefore signals lower toxicity.

In brackets after ≈: the same amount, converted by molar mass.

`C=C(C)C(C(=O)OCc1cccc(Oc2ccccc2)c1)c1ccc(Cl)cc1` (stereo not drawn) [compound 119, 3'-Phenoxybenzyl-α-isopropenyl-4-chlorophenylacetate]: the LC50 in data set [1] was determined as 4.4 ng/mL (≈ 0.0112 µM). Besides, the pest or weed control at 0.2 % in data set [2] was over 80%. The “KT50 (50% knock-down time)” value in data set [3] came to 132 s. In data set [4], the “Potentiation magnification of insecticidal activity by the addition of piperonyl butoxide” value (from here on “Potentiation magnification”) amounted to 5.5. Moreover, in data set [5], the LD50 is over 1000 mg/kg.

`CCC(C(=O)OCc1coc(Cc2ccccc2)c1)c1ccc(Cl)cc1` (stereo not shown) [compound 184]: in data set [1], the LC50 came to 7.8 ng/mL (≈ 0.0211 µM). For the same compound, in data set [2], the pest or weed control at 0.2 % was over 80%. In addition, the “KT50 (50% knock-down time)” value in data set [3] worked out at 142 s. In addition, in data set [4], the “Potentiation magnification” value came out at 5.6. The compound also showed an LD50 in data set [5] of 940 mg/kg.

Take `CNC(=O)Oc1cccc2ccccc12` [carbaryl]: the killing effect entry in data set [6] and in data set [7] was “more than 90%” throughout.

With `COc1ccc(C(C(=O)OCc2cccc(Oc3ccccc3)c2)C(C)C)cc1` (stereo not drawn) [compound 62, 3'-Phenoxybenzyl-α-isopropyl-4-methoxyphenylacetate], the pest or weed control at 0.2 % in data set [2] is over 80%. Moreover, the “KT50 (50% knock-down time)” value in data set [3] worked out at 154 s. Also, the “Potentiation magnification” value in data set [4] is given as 5.3. Further, the LD50 in data set [5] was over 1000 mg/kg.
